Reference: patent US8247378B2, “Homing peptide for tumor vasculature” (The Chinese University of Hong Kong, priority 2009, dated 2012)
Where no end group is shown, it is not given here. The star is where a group is joined. FITC = O=C1OC2(c3ccc(O)cc3Oc3cc(O)ccc32)c2ccc(NC(=S)*)cc21

Legend:
[1] = test system: orthotopic colorectal tumors; assay: Organ level imaging of tumor tissues with FITC-labeled peptide; type: in vivo, mice
Experimental: Imaging of tissue was done under a blue light, by using the imaging system of KODAK Image Station 2000MM.
To determine whether FITC-labeled TCP-1 accumulated into the tumor tissues can be visualized at the organ level, tumor-bearing mice were injected intravenously with FITC-labeled TCP-1, control peptide or PBS alone. More specifically, tumor-bearing mice were i.v. injected with 500 nmol fluorescein-conjugated peptide (in 500 μl PBS). The peptide was allowed to circulate for 20 hour. The mice were killed, and various tissues were excised and examined for fluorescence. Organ imaging was done under a blue light, by using the imaging system of KODAK Image Station 2000MM.
Further, FITC-labeled TCP-1 could specifically accumulate in the tumor tissues with various volumes (diameter 2 mm, 6 mm, 8 mm tested) (FIG. 5B).

SW1116 cells = assay: In vitro cell viability assay (MTT assay), SW1116; type: cell-based, human; conditions: SW1116, 48 h, increasing concentrations
Experimental: (§1) Cell lines and cell culture: The murine colorectal cancer cell colon 26, human colon cancer cell SW1116 were cultured at 37° C. in a humidified atmosphere containing 5% CO2, in RPMI-1640 medium supplemented with 2 g/L sodium bicarbonate, 100 units/ml penicillin, […] streptomycin and 10% FBS.
(§2) In vitro cell viability assay (MTT assay): Cell viability was assessed by MTT assay, which depends on the ability of viable cells to reduce the MTT to a colored formazan product. In brief, cells (10^4 cells per well) were seeded in 96-well microculture plates overnight for attachment, and then incubated with increasing concentrations of the peptides CTPSPFSHC-GG-D(KLAKLAK)2 or CTPSPFSHC (SEQ ID NO:1) or D(KLAKLAK)2 in 100 μl of 1% FBS in DMEM for 6˜48 hours at 37° C. In the next step, MTT was added to each well, and the cells were further incubated for 3 h. The colored formazan product was determined photometrically at 570 nm in a multi-well plate reader (Bio-Rad).
(§3) TCP-1 conjugate and induction of apoptosis in colorectal cancer cells: Next, in order to examine whether the TCP-1 peptide could serve as a drug carrier into cancer cells, we synthesized a chimeric peptide of TCP-1 peptide to a proapoptotic peptide D(KLAKLAK)2, which disrupts mitochondrial membranes upon receptor-mediated cell internalization and causes programmed cell death. Increasing concentrations of TCP-1 conjugate (TCP-GG-D(KLAKLAK)2), equimolar TCP-1 or D(KLAKLAK)2 were incubated with colon 26 or SW1116 cells at 37° C. Cell viability was assessed after 6 h (colon 26) and 48 h (SW1116). The effect of TCP-1 conjugate on the cell viability was determined and compared respectively with TCP-1 or D(KLAKLAK)2 alone.

colon 26 cells = assay: In vitro cell viability assay (MTT assay), colon 26; type: cell-based, murine; conditions: colon 26, 6 h, increasing concentrations
Experimental: as §1, §2, §3

[2] = test system: orthotopic colorectal cancer tissue (colon 26); assay: In vivo phage targeting assay, orthotopic colorectal cancer model; set-up: species or system BALB/c mice; conditions: synthetic peptide (300 μg) co-injected with CTPSPFSHC-phage
Experimental: The mice were maintained at Chinese University of Hong Kong Animal Facility.
The model was performed as previously published with some modifications. (See Takahashi T, Morotomi M, and Nomoto K (2004). A novel mouse model of rectal cancer established by orthotopic implantation of colon cancer cells. Cancer Sci 95, 514-519). Briefly, all mice were given the tap water containing 3% dextran sulfate sodium (DSS) for 8 days to induce colitis. Mice were fasted for 18 h (DSS) after colitis induction, and then anesthetized with sodium pentobarbital. Colon 26 cells (3×10^6 cells/40 μl/mouse) were infused intrarectally with a micropipette inserted 2 cm into the anus of the mice. The anus was compressed with a noncrushing microclamp immediately after instillation of tumor cells for 30 min to prevent leakage. Successful models were used for in vivo selection at 2 weeks after implantation of tumor cells.
The assay was as described in Zhang L, Giraudo E, Hoffman J A, Hanahan D, and Ruoslahti E (2006). Lymphatic zip codes in premalignant lesions and tumors. Cancer Res 66, 5696-5706. Briefly, mice bearing tumors were anesthetized and i.v. injected with 1×10^9 pfu CTPSPFSHC-phage or control phage. After 8 minutes, mice were perfused through the heart with DMEM containing 1% BSA. The tumor and control organs were removed from each mouse and the phage was rescued and titered. […]

[3] = test system: tumor vasculature of orthotopic colorectal cancer; assay: Therapeutic treatment with proapoptotic conjugate, cleaved caspase 3/CD31 staining; type: in vivo
Excerpt: We conjugated TCP-1 with a pro-apoptotic peptide, D(KLAKLAK)2, which disrupts mitochondrial membranes upon receptor-mediated cell internalization and causes programmed cell death. This approach has been successfully employed for targeted apoptosis induction in angiogenic endothelial cells, tumor lymphatics and the vasculature of white fat. See: Zhang L, Giraudo E, Hoffman J A, Hanahan D, and Ruoslahti E (2006). Lymphatic zip codes in premalignant lesions and tumors. Cancer Res 66, 5696-5706; Kolonin M G, Saha P K, Chan L, Pasqualini R, and Arap W (2004). Reversal of obesity by targeted ablation of adipose tissue. Nat Med 10, 625-632; and, Ellerby H M, Arap W, Ellerby L M, Kain R, Andrusiak R, Rio G D, Krajewski S, Lombardo C R, Rao R, Ruoslahti E, et al. (1999). Anti-cancer activity of targeted pro-apoptotic peptides. Nat Med 5, 1032-1038. All-D enantiomer D(KLAKLAK)2 was used to avoid degradation by proteases. Ellerby H M, et al., (1999) Nat Med 5, 1032-1038.
Mice bearing orthotopic colorectal cancer were randomized into three groups. The therapeutic group was i.v. injected 260 μg/dose/mouse of the conjugated CTPSPFSHC-GG-D(KLAKLAK)2 [CDK]. Control groups received an equimolar mixture of CTPSPFSHC (SEQ ID NO:1) and D(KLAKLAK)2 [DKK], or PBS alone once every three days. Treatment was terminated 7 days after the first peptide administration as described in Kolonin M G, Saha P K, Chan L, Pasqualini R, and Arap W (2004). Reversal of obesity by targeted ablation of adipose tissue. Nat Med 10, 625-632 and Giordano R J, Landenranta J, Zhen L, Chukwueke U, Petrache I, Langley R R, Fidler I J, Pasqualini R, Tuder R M, and Arap W (2008). Targeted induction of lung endothelial cell apoptosis causes emphysema-like changes in the mouse. J Biol Chem 283, 29447-29460.
Tumors and control organs were dissected at the termination of the experiment. Histologic analysis was done to evaluate the density of tumor blood vessels. Apoptotic vascular endothelial cells were visualized by double staining with anticleaved caspase-3 and CD31 antibodies. […]

[4] = test system: blood vessels (CD31) in gastric cancer tissues; assay: Biodistribution of FITC-conjugated peptide, gastric cancer model; type: in vivo, mouse; conditions: 300 nmol i.v., 1 hour circulation
Experimental: (§4) To further confirm whether the selective phage homing was due to the CTPSPFSHC (SEQ ID NO:1) peptide (TCP-1), chemically synthetic FITC-conjugated TCP-1 or control peptide was intravenously injected into gastric cancer-bearing mice to study the location of the peptide. Biodistribution of fluorescein-conjugated peptides was examined after i.v. injection of the peptide (300 nmol in 300 μl PBS) into the tail vein of a gastric cancer-bearing mouse. The peptide was allowed to circulate for 1 hour.
(§5) Tumor and control tissues were collected and frozen sections prepared as described above. Blood vessels were stained by CD31 antibody (secondary antibody conjugated Alexa-568). […] FITC-labeled control peptide was not found in the tumor tissues (FIG. 10 bottom). Taken together with the immunolocalization analyses of TCP-1 phage homing, the peptide localization data confirmed that TCP-1 peptide also homed specifically to blood vessels in gastric cancer tissues but not to the vasculature of control organs.

[5] = test system: blood vessels (CD31) in orthotopic colorectal tumor tissues; assay: Biodistribution of FITC-conjugated peptide, colorectal cancer model; type: in vivo, mouse; conditions: 300 nmol i.v., 1 hour circulation
Experimental: as §4, with “tumor-bearing” for “gastric cancer-bearing”
as §5, with “above in Example 1.” for “above.”, “4A).” for “10 bottom).”, “peptide” for “peptide also”, “tumor” for “gastric cancer”

[6] = test system: blood vessels of human colon and rectal adenocarcinoma tissues; assay: Peptide binding to tissue sections from human cancer; conditions: for binding to blood vessels of cancer tissues / binding to vasculature of normal colon tissues: 10 μmol/L, 1 hour, 37° C., human biopsy sections
Experimental: To establish the ability of TCP-1 to selectively bind to the vasculature of human tumors, human biopsy samples were studied. They were double stained and images photographically overlayed to determine tissue specificity. More specifically, multiple human biopsy samples containing both colon adenocarcinoma and normal colonic tissue were snap frozen, embedded in OCT, cut into 5 μm sections, and then arrayed on slides. The slides were incubated with 10 μmol/L FITC-CTPSPFSHC (SEQ ID NO:2) or FITC-CVQTAQLLC (SEQ ID NO:3) for 1 hour at 37° C., washed three times with PBS, fixed with 4% paraformaldehyde. Blood vessels were stained with mouse anti-human CD31 monoclonal antibody and Alexa Fluor 568 goat anti-mouse IgG as above described.
The positive binding was usually found in tumor tissues at more advanced stages (in terms of lymphovascular permeation, T staging, N staging, and overall Dukes' staging).

[7] = 500 nmol i.v., 20 h after injection

Substance	peptide fluorescence in vasculature of tumor tissue (histological analysis) ([1]; 20 h after injection)	effect on cell viability (SW1116 cells)	effect on cell viability (colon 26 cells)	peptide localization in tumor tissues (CD31 co-staining) [4]	fluorescent signal in other control tissues [1, 7]	fluorescent signal in tumors, whole tissue under blue light [1, 7]	peptide localization in tumor tissues (CD31 co-staining) [5]	binding to blood vessels of cancer tissues [6]	binding to vasculature of normal colon tissues [6]	also measured
CTPSPFSHC (also: cyclic) [TCP-1]	remained in the vasculature of tumor tissue	no significant effect on cell viability	no significant effect on cell viability	–	–	–	–	–	–	peptide fluorescence in control organs (histological analysis) ([1]; 20 h after injection): not in the control organs; effect on phage number recovered from control organs (brain, colon) [2]: not much affected; reduction of phage number recovered from the tumor tissue [2]: 95%
CTPSPFSHC-GG-D(KLAKLAK)2 [TCP-GG-D(KLAKLAK)2]	–	inhibited the proliferation of colon 26 and SW1116 cells more efficiently than D(KLAKLAK)2 alone	inhibited the proliferation of colon 26 and SW1116 cells more efficiently than D(KLAKLAK)2 alone	–	–	–	–	–	–	vasculature endothelial cells expressing active caspase 3 in tumors ([3]; 260 μg/dose/mouse i.v. once every three days, 7 days, vs PBS or uncoupled mixture): obvious increase; quantification of active caspase 3: apoptotic cells in the tumor vasculature ([3]; 260 μg/dose/mouse i.v., compared to the other two groups): remarkable increased number of apoptotic cells; apoptotic vasculature in normal colon tissues and brain tissues ([3]; mouse, in vivo): hardly active caspase-3 positive cells
D(KLAKLAK)2 [reference compound]	–	much weaker toxic effects	much weaker toxic effects	–	–	–	–	–	–	–
FITC-CTPSPFSHC ({FITC}-CTPSPFSHC; cysteine pairing not given here) [FITC-labeled TCP-1, FITC-conjugated TCP-1 peptide for homing validation]	–	–	–	colocalised with CD31	no specific fluorescent signal	strong fluorescent signal	colocalised with CD31	bound	not to vasculature of normal colon tissues	peptide localization in control organs [4]: not detectable; smallest tumor size detected ([1]; 500 nmol i.v., 20 hour circulation): 2 mm; peptide localization in control organs [5]: not detectable; colon adenocarcinomas recognized by the peptide ([6]; positive/total patients): 5/10; rectal adenocarcinomas recognized by the peptide ([6]; positive/total patients): 6/11
FITC-CVQTAQLLC ({FITC}-CVQTAQLLC; cysteine pairing not given here) [FITC-labeled control peptide, FITC-conjugated negative control peptide, reference compound]	not detectable	–	–	not found	no specific fluorescent signal	no fluorescent signal	not found	did not interact	did not interact	–
